Measurements published in patent US9708639B2, “Method for quantifying amino acids with pyrophosphate” (TOYAMA PREFECTURE, priority 2012, dated 2017).

What was measured:
Test in all cases: Qualitative test of AARS substrate specificity (molybdenum blue method)
Type in all cases: biochemical, Thermotoga maritima MSB8 strain
Design in all cases: key: +: Activity was detected; −: Activity was not detected
[1] = molecular target: T1, Thermotoga-derived LysRS (Thermotoga maritima, UniProt Q9X231); settings: Tyr 1 mM, other amino acids 5 mM; hydroxylamine 1000 mM; LysRS 0.2 mg/ml (3 mU/ml); 30° C.
T1 construct: His tag (C); made in house; host or cells: Escherichia coli BL21 (DE3)
T1 sequence (Q9X231 1-502): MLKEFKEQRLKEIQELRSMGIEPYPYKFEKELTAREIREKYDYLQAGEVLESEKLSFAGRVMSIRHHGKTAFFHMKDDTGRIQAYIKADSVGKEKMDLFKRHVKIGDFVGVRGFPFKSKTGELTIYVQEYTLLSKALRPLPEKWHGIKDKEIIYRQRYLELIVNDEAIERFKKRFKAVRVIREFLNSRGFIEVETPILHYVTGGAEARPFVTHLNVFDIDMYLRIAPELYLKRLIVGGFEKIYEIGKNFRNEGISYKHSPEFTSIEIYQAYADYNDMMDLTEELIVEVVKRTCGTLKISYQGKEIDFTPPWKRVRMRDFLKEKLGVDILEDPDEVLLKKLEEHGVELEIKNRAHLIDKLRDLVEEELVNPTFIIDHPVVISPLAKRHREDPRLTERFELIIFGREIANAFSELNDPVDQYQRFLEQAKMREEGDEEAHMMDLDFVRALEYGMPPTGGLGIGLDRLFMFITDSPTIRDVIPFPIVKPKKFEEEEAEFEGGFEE
Experimental: (§1) A test sample containing an amino acid as the measurement subject and a reaction mixture for quantifying amino acid having the following composition were mixed. The mixture was left standing at 30° C. to allow the AARS reaction to advance. The mixture in a volume of 33 μl, 66 μl of water, and 1 μl of a 300 U/ml yeast pyrophosphatase solution were mixed, and left standing at room temperature for 20 minutes to allow the pyrophosphatase reaction to advance. Then, the reaction mixture was mixed with 100 μl of a color development solution A and 30 μl of a color developing solution B having the following compositions, then the mixture was left standing at room temperature for 5 minutes, and the absorbance was measured at 700 nm or 900 nm with a microplate reader.
(§2) Reaction mixture for quantifying amino acid: 20 mM Tris-HCl (pH 7.0), 5 mM MgCl2, 2 mM ATP, and AARS (concentrations are final concentrations obtained after mixing with test sample)
(§3) Color developing solution A: A solution obtained by mixing water and concentrated sulfuric acid at a ratio of 3:1 and dissolving (NH4)6Mo7O24.4H2O in the mixture at a concentration of 0.066 g/ml
(§4) Color developing solution B: A solution obtained by mixing water and concentrated sulfuric acid at a ratio of 10000:7 and dissolving FeSO4.7H2O in the mixture at a concentration of 145 mg/ml
(§5) Presence or absence of pyrophosphate generation was verified for the Thermotoga-derived CysRS, HisRS, LysRS, ProRS, SerRS, TrpRS, and TyrRS by using the AARS activity measurement method described in 9. and standard solutions of the various amino acids as test samples. AARSs were added to the reaction mixture at final concentrations of 0.3 (8 mU/ml), 0.1, 0.2 (3 mU/ml), 0.2, 0.1 (1 mU/ml), 0.1, 0.2 (20 mU/ml) mg/ml, respectively. The reaction mixtures were prepared so that the final concentration of Tyr was 1 mM, and the final concentrations of the other amino acids were 5 mM. As for the hydroxylamine concentration, it was added at a final concentration of 1000 mM for all the cases. Further, presence or absence of pyrophosphate production was also verified for the Thermus-derived MetRS and TyrRS by using the AARS activity measurement method described in 10. and standard solutions of the various amino acids as test samples. The reaction mixtures were prepared so that the final concentrations of the amino acids were 200 μM. Hydroxylamine was added at a final concentration of 400 mM.
(§6) Detection or no detection of the activity in the reaction mixtures containing a combination of each AARS and amino acid are shown in Table 2. The symbol + indicates detection of the activity, and − indicates no detection of the activity.

[2] = molecular target: T2, Thermotoga-derived HisRS (Thermotoga maritima, UniProt Q9X0H5); settings: Tyr 1 mM, other amino acids 5 mM; hydroxylamine 1000 mM; HisRS 0.1 mg/ml; 30° C.
T2 construct: His tag (C); made in house; host or cells: Escherichia coli BL21 (DE3)
T2 sequence (Q9X0H5 1-420): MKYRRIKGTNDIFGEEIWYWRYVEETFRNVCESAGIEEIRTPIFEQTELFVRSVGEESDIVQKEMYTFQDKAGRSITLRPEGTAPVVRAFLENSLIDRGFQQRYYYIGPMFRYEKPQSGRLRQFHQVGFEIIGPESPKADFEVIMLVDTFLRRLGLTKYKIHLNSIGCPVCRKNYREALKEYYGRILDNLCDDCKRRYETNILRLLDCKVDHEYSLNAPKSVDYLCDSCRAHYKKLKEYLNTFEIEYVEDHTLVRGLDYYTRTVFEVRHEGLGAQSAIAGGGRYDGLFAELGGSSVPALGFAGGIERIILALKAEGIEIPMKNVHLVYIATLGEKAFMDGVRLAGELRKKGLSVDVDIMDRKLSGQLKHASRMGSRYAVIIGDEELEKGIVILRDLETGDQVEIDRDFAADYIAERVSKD
Experimental: as §1, §2, §3, §4, §5, §6

[3] = molecular target: T3, Thermotoga-derived ProRS (Thermotoga maritima, UniProt Q9WYY4); settings: Tyr 1 mM, other amino acids 5 mM; hydroxylamine 1000 mM; ProRS 0.2 mg/ml; 30° C.
T3 construct: His tag (C); made in house; host or cells: Escherichia coli BL21 (DE3)
T3 sequence (Q9WYY4 1-577): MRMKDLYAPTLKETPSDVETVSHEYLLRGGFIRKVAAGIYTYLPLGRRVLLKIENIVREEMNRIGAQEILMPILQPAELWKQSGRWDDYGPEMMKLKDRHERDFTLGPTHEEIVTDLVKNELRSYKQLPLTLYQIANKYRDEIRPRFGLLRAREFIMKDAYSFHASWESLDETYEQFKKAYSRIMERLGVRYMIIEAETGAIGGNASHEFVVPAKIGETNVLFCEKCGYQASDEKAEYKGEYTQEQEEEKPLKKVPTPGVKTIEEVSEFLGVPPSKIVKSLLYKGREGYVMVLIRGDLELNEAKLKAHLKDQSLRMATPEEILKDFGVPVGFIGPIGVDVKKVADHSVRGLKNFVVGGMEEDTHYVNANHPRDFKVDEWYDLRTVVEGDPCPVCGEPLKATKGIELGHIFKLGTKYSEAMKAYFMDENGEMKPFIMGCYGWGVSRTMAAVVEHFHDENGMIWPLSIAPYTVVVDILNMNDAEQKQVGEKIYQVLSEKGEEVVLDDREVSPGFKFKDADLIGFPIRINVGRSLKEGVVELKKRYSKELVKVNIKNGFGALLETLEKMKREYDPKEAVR
Experimental: as §1, §2, §3, §4, §5, §6

In the case of `N[C@@H](CO)C(=O)O` [Ser, L-serine], the “Detection of the activity (pyrophosphate generation), LysRS” value (“Detection of the activity … LysRS” below) [1] is reported as “−”, the “Detection of the activity (pyrophosphate generation), HisRS” value (from here on “Detection of the activity … HisRS”) [2] is reported as “−” and the “Detection of the activity (pyrophosphate generation), ProRS” value (shortened to “Detection of the activity … ProRS”) [3] is reported as “−”.

With `CC(C)[C@H](N)C(=O)O` [Val, L-valine] the “Detection of the activity … LysRS” value [1] was “−”, the “Detection of the activity … HisRS” value [2] was “−” and the “Detection of the activity … ProRS” value [3] was “−”.

In the case of `N[C@@H](CS)C(=O)O` [Cys, L-cysteine], the “Detection of the activity … LysRS” value [1] is reported as “−”, the “Detection of the activity … HisRS” value [2] is reported as “−” and the “Detection of the activity … ProRS” value [3] is reported as “−”.

In the case of `C[C@@H](O)[C@H](N)C(=O)O` [Thr, L-threonine], the “Detection of the activity … LysRS” value [1] is reported as “−”, the “Detection of the activity … HisRS” value [2] is reported as “−” and the “Detection of the activity … ProRS” value [3] is reported as “−”.

In the case of `N=C(N)NCCC[C@H](N)C(=O)O` [Arg, L-arginine], the “Detection of the activity … LysRS” value [1] is reported as “−”, the “Detection of the activity … HisRS” value [2] is reported as “−” and the “Detection of the activity … ProRS” value [3] is reported as “−”.

With `CC[C@H](C)[C@H](N)C(=O)O` [Ile, L-isoleucine] the “Detection of the activity … LysRS” value [1] was “−”, the “Detection of the activity … HisRS” value [2] was “−” and the “Detection of the activity … ProRS” value [3] was “−”.

With `N[C@@H](Cc1ccccc1)C(=O)O` [Phe, L-phenylalanine] the “Detection of the activity … LysRS” value [1] was “−”, the “Detection of the activity … HisRS” value [2] was “−” and the “Detection of the activity … ProRS” value [3] was “−”.

In the case of `N[C@@H](CC(=O)O)C(=O)O` [Asp, L-aspartic acid], the “Detection of the activity … LysRS” value [1] is reported as “−”, the “Detection of the activity … HisRS” value [2] is reported as “−” and the “Detection of the activity … ProRS” value [3] is reported as “−”.

For `NC(=O)CC[C@H](N)C(=O)O` [Gln, L-glutamine], the “Detection of the activity … LysRS” value [1] was “−”, the “Detection of the activity … HisRS” value [2] was “−” and the “Detection of the activity … ProRS” value [3] was “−”.

`N[C@@H](CCC(=O)O)C(=O)O` [Glu, L-glutamic acid] was tested, and the “Detection of the activity … LysRS” value [1] was “−”, the “Detection of the activity … HisRS” value [2] was “−” and the “Detection of the activity … ProRS” value [3] was “−”.

In the case of `NCC(=O)O` [Gly, glycine], the “Detection of the activity … LysRS” value [1] is reported as “−”, the “Detection of the activity … HisRS” value [2] is reported as “−” and the “Detection of the activity … ProRS” value [3] is reported as “−”.

With `CSCC[C@H](N)C(=O)O` [Met, L-methionine] the “Detection of the activity … LysRS” value [1] was “−”, the “Detection of the activity … HisRS” value [2] was “−” and the “Detection of the activity … ProRS” value [3] was “−”.

`NCCCC[C@H](N)C(=O)O` [Lys, L-lysine] was tested, and the “Detection of the activity … LysRS” value [1] was “+”, the “Detection of the activity … HisRS” value [2] was “−” and the “Detection of the activity … ProRS” value [3] was “−”.

For `N[C@@H](Cc1c[nH]c2ccccc12)C(=O)O` [Trp, L-tryptophan], the “Detection of the activity … LysRS” value [1] was “−”, the “Detection of the activity … HisRS” value [2] was “−” and the “Detection of the activity … ProRS” value [3] was “−”.

For `NC(=O)C[C@H](N)C(=O)O` [Asn, L-asparagine], the “Detection of the activity … LysRS” value [1] was “−”, the “Detection of the activity … HisRS” value [2] was “−” and the “Detection of the activity … ProRS” value [3] was “−”.

For `C[C@H](N)C(=O)O` [Ala, L-alanine], the “Detection of the activity … LysRS” value [1] was “−”, the “Detection of the activity … HisRS” value [2] was “−” and the “Detection of the activity … ProRS” value [3] was “−”.

In the case of `N[C@@H](Cc1ccc(O)cc1)C(=O)O` [Tyr, L-tyrosine], the “Detection of the activity … LysRS” value [1] is reported as “−”, the “Detection of the activity … HisRS” value [2] is reported as “−” and the “Detection of the activity … ProRS” value [3] is reported as “−”.

`O=C(O)[C@@H]1CCCN1` [Pro, L-proline] was tested, and the “Detection of the activity … LysRS” value [1] was “−”, the “Detection of the activity … HisRS” value [2] was “−” and the “Detection of the activity … ProRS” value [3] was “+”.

For `N[C@@H](Cc1c[nH]cn1)C(=O)O` [His, L-histidine], the “Detection of the activity … LysRS” value [1] was “−”, the “Detection of the activity … HisRS” value [2] was “+” and the “Detection of the activity … ProRS” value [3] was “−”.

For `CC(C)C[C@H](N)C(=O)O` [Leu, L-leucine], the “Detection of the activity … LysRS” value [1] was “−”, the “Detection of the activity … HisRS” value [2] was “−” and the “Detection of the activity … ProRS” value [3] was “−”.
